Source: patent US10787452B2 (Vertex Pharmaceuticals Incorporated, priority 2012, dated 2020)

System: HCT116 colorectal cancer cells
Test: Cisplatin sensitization assay (96 h cell viability MTS);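 note: compound concentration needed to lower the Cisplatin-alone IC50 by a set fold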
Assay type: cell-based
Settings: 96 h MTS, compound plus Cisplatin
Procedure, shortened: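 Viability is measured with MTS reagent, added after 96 h and developed for 1 h at 37° C. Beforehand, cells receive compound and cisplatin simultaneously in a concentration matrix of 2-fold serial dilutions starting at 10 μM final.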

Row | SMILES | Cisplatin Sensitization Assay
1 | CN(C)CC1CCN(c2ccncc2NC(=O)c2c(N)nn3cc(Cl)cnc23)CC1 [I-N-45, 2-amino-6-chloro-N-(4-(4-((dimethylamino)methyl)piperidin-1-yl)pyridin-3-yl)pyrazolo[1,5-a]pyrimidine-3-carboxamide] | ++ (Compounds with a Cisplatin sensitization value >0.02 μM but <0.2 μM are marked with “++.”)
2 | COC1(CN(C)C)CCN(c2ccncc2NC(=O)c2c(N)nn3cc(Cl)cnc23)CC1 [I-N-46, 2-amino-6-chloro-N-(4-(4-((dimethylamino)methyl)-4-methoxypiperidin-1-yl)pyridin-3-yl)pyrazolo[1,5-a]pyrimidine-3-carboxamide] | +++ (Compounds with a Cisplatin sensitization value of <0.02 μM are marked with “+++.”)
3 | COCC1CN(c2ccncc2NC(=O)c2c(N)nn3cc(Cl)cnc23)CCN1C (centres unmarked) [I-N-47, 2-amino-6-chloro-N-(4-(3-(methoxymethyl)-4-methylpiperazin-1-yl)pyridin-3-yl)pyrazolo[1,5-a]pyrimidine-3-carboxamide] | ++ (Compounds with a Cisplatin sensitization value >0.02 μM but <0.2 μM are marked with “++.”)
4 | Nc1nn2cc(Cl)cnc2c1C(=O)Nc1cnccc1N1CCN(C2CCC2)CC1 [I-N-48, 2-amino-6-chloro-N-(4-(4-cyclobutylpiperazin-1-yl)pyridin-3-yl)pyrazolo[1,5-a]pyrimidine-3-carboxamide] | ++ (Compounds with a Cisplatin sensitization value >0.02 μM but <0.2 μM are marked with “++.”)
5 | CN(C)CCN1CCN(c2ccncc2NC(=O)c2c(N)nn3cc(Cl)cnc23)CC1 [I-N-49, 2-amino-6-chloro-N-(4-(4-(2-(dimethylamino)ethyl)piperazin-1-yl)pyridin-3-yl)pyrazolo[1,5-a]pyrimidine-3-carboxamide] | +++ (Compounds with a Cisplatin sensitization value of <0.02 μM are marked with “+++.”)
6 | CN1CCN(c2cc(N)ncc2NC(=O)c2c(N)nn3cc(Cl)cnc23)CC1 [I-N-50, 2-amino-N-(6-amino-4-(4-methylpiperazin-1-yl)pyridin-3-yl)-6-chloropyrazolo[1,5-a]pyrimidine-3-carboxamide] | + (Compounds with a Cisplatin sensitization value >0.2 μM but <5 μM are marked with “+.”)
7 | CN1CCN(c2cc(Cl)ncc2NC(=O)c2c(N)nn3cc(Cl)cnc23)CC1 [I-N-52, 2-amino-6-chloro-N-(6-chloro-4-(4-methylpiperazin-1-yl)pyridin-3-yl)pyrazolo[1,5-a]pyrimidine-3-carboxamide] | ++ (Compounds with a Cisplatin sensitization value >0.02 μM but <0.2 μM are marked with “++.”)
8 | CN1CCN(c2ccncc2NC(=O)c2c(N)nn3cc(Cl)cnc23)CC1(C)C [I-N-53, 2-amino-6-chloro-N-(4-(3,3,4-trimethylpiperazin-1-yl)pyridin-3-yl)pyrazolo[1,5-a]pyrimidine-3-carboxamide] | ++ (Compounds with a Cisplatin sensitization value >0.02 μM but <0.2 μM are marked with “++.”)
9 | CC1CN(c2ccncc2NC(=O)c2c(N)nn3cc(Cl)cnc23)CCN1C (centres unmarked) [I-N-54, 2-amino-6-chloro-N-(4-(3,4-dimethylpiperazin-1-yl)pyridin-3-yl)pyrazolo[1,5-a]pyrimidine-3-carboxamide] | +++ (Compounds with a Cisplatin sensitization value of <0.02 μM are marked with “+++.”)
10 | Nc1nn2cc(Cl)cnc2c1C(=O)Nc1cnccc1N1CCCC(N)C1 (centres unmarked) [I-N-55, 2-amino-N-(4-(3-aminopiperidin-1-yl)pyridin-3-yl)-6-chloropyrazolo[1,5-a]pyrimidine-3-carboxamide] | ++ (Compounds with a Cisplatin sensitization value >0.02 μM but <0.2 μM are marked with “++.”)
11 | Nc1nn2cc(Cl)cnc2c1C(=O)Nc1cnccc1N1CCN2CCC1CC2 [I-N-56, N-(4-(1,4-diazabicyclo[3.2.2]nonan-4-yl)pyridin-3-yl)-2-amino-6-chloropyrazolo[1,5-a]pyrimidine-3-carboxamide] | ++ (Compounds with a Cisplatin sensitization value >0.02 μM but <0.2 μM are marked with “++.”)
12 | Cc1cncc(NC(=O)c2c(N)nn3cc(Cl)cnc23)c1N1CCN(C)CC1 [I-N-57, 2-amino-6-chloro-N-(5-methyl-4-(4-methylpiperazin-1-yl)pyridin-3-yl)pyrazolo[1,5-a]pyrimidine-3-carboxamide] | +++ (Compounds with a Cisplatin sensitization value of <0.02 μM are marked with “+++.”)
13 | Nc1nn2cc(Cl)cnc2c1C(=O)Nc1cnccc1N1CCN(C2COC2)CC1 [I-N-58, 2-amino-6-chloro-N-(4-(4-(oxetan-3-yl)piperazin-1-yl)pyridin-3-yl)pyrazolo[1,5-a]pyrimidine-3-carboxamide] | ++ (Compounds with a Cisplatin sensitization value >0.02 μM but <0.2 μM are marked with “++.”)
14 | CN1CCN(c2ccncc2NC(=O)c2c(N)nn3cc(Cl)cnc23)CC1 [I-N-59, 2-amino-6-chloro-N-(4-(4-methylpiperazin-1-yl)pyridin-3-yl)pyrazolo[1,5-a]pyrimidine-3-carboxamide] | ++ (Compounds with a Cisplatin sensitization value >0.02 μM but <0.2 μM are marked with “++.”)
15 | COCCN1CCN(c2ccncc2NC(=O)c2c(N)nn3cc(Cl)cnc23)CC1 [I-N-60, 2-amino-6-chloro-N-(4-(4-(2-methoxyethyl)piperazin-1-yl)pyridin-3-yl)pyrazolo[1,5-a]pyrimidine-3-carboxamide] | +++ (Compounds with a Cisplatin sensitization value of <0.02 μM are marked with “+++.”)
16 | CN1CCN2CCN(c3ccncc3NC(=O)c3c(N)nn4cc(Cl)cnc34)CC2C1 (centres unmarked) [I-N-61, 2-amino-6-chloro-N-(4-(8-methylhexahydro-1H-pyrazino[1,2-a]pyrazin-2(6H)-yl)pyridin-3-yl)pyrazolo[1,5-a]pyrimidine-3-carboxamide] | +++ (Compounds with a Cisplatin sensitization value of <0.02 μM are marked with “+++.”)
17 | CC1(N2CCN(c3ccncc3NC(=O)c3c(N)nn4cc(F)cnc34)CC2)COC1 [I-N-62, 2-amino-6-fluoro-N-(4-(4-(3-methyloxetan-3-yl)piperazin-1-yl)pyridin-3-yl)pyrazolo[1,5-a]pyrimidine-3-carboxamide] | ++ (Compounds with a Cisplatin sensitization value >0.02 μM but <0.2 μM are marked with “++.”)
18 | CN1CCN(c2ccncc2NC(=O)c2c(N)nn3cc(Cl)cnc23)CC1CO (centres unmarked) [I-N-63, 2-amino-6-chloro-N-(4-(3-(hydroxymethyl)-4-methylpiperazin-1-yl)pyridin-3-yl)pyrazolo[1,5-a]pyrimidine-3-carboxamide] | ++ (Compounds with a Cisplatin sensitization value >0.02 μM but <0.2 μM are marked with “++.”)
19 | Nc1nn2cc(Cl)cnc2c1C(=O)Nc1cnccc1N1CCN(C2CC2)CC1 [I-N-64, 2-amino-6-chloro-N-(4-(4-cyclopropylpiperazin-1-yl)pyridin-3-yl)pyrazolo[1,5-a]pyrimidine-3-carboxamide] | +++ (Compounds with a Cisplatin sensitization value of <0.02 μM are marked with “+++.”)
20 | Nc1nn2cc(Cl)cnc2c1C(=O)Nc1cnccc1N1CCN2CCC[C@@H]2C1 [I-N-65, (R)-2-amino-6-chloro-N-(4-(hexahydropyrrolo[1,2-a]pyrazin-2(1H)-yl)pyridin-3-yl)pyrazolo[1,5-a]pyrimidine-3-carboxamide] | + (Compounds with a Cisplatin sensitization value >0.2 μM but <5 μM are marked with “+.”)
21 | CC1(O)CCN(c2ccncc2NC(=O)c2c(N)nn3cc(Cl)cnc23)CC1 [I-N-66, 2-amino-6-chloro-N-(4-(4-hydroxy-4-methylpiperidin-1-yl)pyridin-3-yl)pyrazolo[1,5-a]pyrimidine-3-carboxamide] | +++ (Compounds with a Cisplatin sensitization value of <0.02 μM are marked with “+++.”)
22 | Nc1nn2cc(Cl)cnc2c1C(=O)Nc1cnccc1N1CCN(CC(F)(F)F)CC1 [I-N-67, 2-amino-6-chloro-N-(4-(4-(2,2,2-trifluoroethyl)piperazin-1-yl)pyridin-3-yl)pyrazolo[1,5-a]pyrimidine-3-carboxamide] | +++ (Compounds with a Cisplatin sensitization value of <0.02 μM are marked with “+++.”)
23 | Nc1nn2cc(Cl)cnc2c1C(=O)Nc1cnccc1N1CC[S+]([O-])CC1 [I-N-68, 2-amino-6-chloro-N-(4-(1-oxidothiomorpholino)pyridin-3-yl)pyrazolo[1,5-a]pyrimidine-3-carboxamide] | +++ (Compounds with a Cisplatin sensitization value of <0.02 μM are marked with “+++.”)
24 | CC(C)(O)C1CCN(c2ccncc2NC(=O)c2c(N)nn3cc(Cl)cnc23)CC1 [I-N-69, 2-amino-6-chloro-N-(4-(4-(2-hydroxypropan-2-yl)piperidin-1-yl)pyridin-3-yl)pyrazolo[1,5-a]pyrimidine-3-carboxamide] | +++ (Compounds with a Cisplatin sensitization value of <0.02 μM are marked with “+++.”)
25 | Nc1nn2cc(Cl)cnc2c1C(=O)Nc1cnccc1N1CCNC(C(F)(F)F)C1 (centres unmarked) [I-N-70, 2-amino-6-chloro-N-(4-(3-(trifluoromethyl)piperazin-1-yl)pyridin-3-yl)pyrazolo[1,5-a]pyrimidine-3-carboxamide] | ++ (Compounds with a Cisplatin sensitization value >0.02 μM but <0.2 μM are marked with “++.”)
26 | Nc1nn2cc(Cl)cnc2c1C(=O)Nc1cnccc1N1CCN2CCC[C@H]2C1 [I-N-71, (S)-2-amino-6-chloro-N-(4-(hexahydropyrrolo[1,2-a]pyrazin-2(1H)-yl)pyridin-3-yl)pyrazolo[1,5-a]pyrimidine-3-carboxamide] | +++ (Compounds with a Cisplatin sensitization value of <0.02 μM are marked with “+++.”)
